Measurements reported in ChEMBL document CHEMBL1147785, “Novel peptidomimetic cysteine protease inhibitors as potential antimalarial agents” (J Med Chem, 2006).
Calls of active or inactive are those of the source. Residues, ends and D or L forms follow the SMILES beside them. *: point of attachment. Cbz = O=C(OCc1ccccc1)*

Legend:
Caspase-4 (Homo sapiens) = biological target: T1, Caspase-4 (Homo sapiens) (UniProt P49662); test: Inhibition of human recombinant caspase4 upto 50 uM
T1 sequence (whole entry): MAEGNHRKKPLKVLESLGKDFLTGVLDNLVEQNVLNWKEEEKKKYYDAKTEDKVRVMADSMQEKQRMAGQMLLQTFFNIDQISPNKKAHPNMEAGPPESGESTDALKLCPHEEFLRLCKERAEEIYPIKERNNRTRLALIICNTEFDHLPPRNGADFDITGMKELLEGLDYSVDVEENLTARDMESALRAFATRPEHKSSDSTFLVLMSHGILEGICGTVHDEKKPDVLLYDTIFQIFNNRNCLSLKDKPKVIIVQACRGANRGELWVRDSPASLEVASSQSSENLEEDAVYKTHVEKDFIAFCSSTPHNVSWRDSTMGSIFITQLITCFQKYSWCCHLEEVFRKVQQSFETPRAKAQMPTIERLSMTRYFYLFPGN

Caspase-6 (Homo sapiens) = biological target: T2, Caspase-6 (Homo sapiens) (UniProt P55212); test: Inhibition of human recombinant caspase6 upto 50 uM
T2 sequence (whole entry): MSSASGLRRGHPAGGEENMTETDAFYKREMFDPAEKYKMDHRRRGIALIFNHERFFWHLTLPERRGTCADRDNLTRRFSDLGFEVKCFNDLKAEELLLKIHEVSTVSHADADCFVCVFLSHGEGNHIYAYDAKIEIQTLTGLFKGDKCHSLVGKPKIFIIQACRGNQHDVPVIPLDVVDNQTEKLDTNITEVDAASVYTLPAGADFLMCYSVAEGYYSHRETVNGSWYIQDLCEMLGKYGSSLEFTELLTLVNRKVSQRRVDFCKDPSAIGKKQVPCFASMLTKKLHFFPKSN

Caspase-3 (Homo sapiens) = biological target: T3, Caspase-3 (Homo sapiens) (UniProt P42574); test: Inhibition of human recombinant caspase3 upto 50 uM
T3 sequence (whole entry): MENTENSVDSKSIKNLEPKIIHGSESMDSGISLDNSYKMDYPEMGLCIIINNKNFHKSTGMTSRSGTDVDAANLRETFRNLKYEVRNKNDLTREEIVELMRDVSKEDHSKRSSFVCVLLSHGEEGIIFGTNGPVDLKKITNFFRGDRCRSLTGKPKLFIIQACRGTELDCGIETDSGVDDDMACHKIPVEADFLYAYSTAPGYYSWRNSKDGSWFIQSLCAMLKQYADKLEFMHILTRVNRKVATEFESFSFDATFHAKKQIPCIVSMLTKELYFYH

Caspase-7 (Homo sapiens) = biological target: T4, Caspase-7 (Homo sapiens) (UniProt P55210); test: Inhibition of human recombinant caspase7 upto 50 uM
T4 sequence (whole entry): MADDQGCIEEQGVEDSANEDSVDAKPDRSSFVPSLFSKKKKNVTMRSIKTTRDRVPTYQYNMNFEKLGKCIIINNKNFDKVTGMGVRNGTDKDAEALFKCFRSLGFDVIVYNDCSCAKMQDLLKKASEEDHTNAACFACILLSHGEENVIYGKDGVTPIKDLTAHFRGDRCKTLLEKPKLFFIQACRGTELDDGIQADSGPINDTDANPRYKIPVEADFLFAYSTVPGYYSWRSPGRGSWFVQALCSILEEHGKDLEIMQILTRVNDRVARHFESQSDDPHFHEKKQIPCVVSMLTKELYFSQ

Caspase-5 (Homo sapiens) = biological target: T5, Caspase-5 (Homo sapiens) (UniProt P51878); test: Inhibition of human recombinant caspase5 upto 50 uM
T5 sequence (whole entry): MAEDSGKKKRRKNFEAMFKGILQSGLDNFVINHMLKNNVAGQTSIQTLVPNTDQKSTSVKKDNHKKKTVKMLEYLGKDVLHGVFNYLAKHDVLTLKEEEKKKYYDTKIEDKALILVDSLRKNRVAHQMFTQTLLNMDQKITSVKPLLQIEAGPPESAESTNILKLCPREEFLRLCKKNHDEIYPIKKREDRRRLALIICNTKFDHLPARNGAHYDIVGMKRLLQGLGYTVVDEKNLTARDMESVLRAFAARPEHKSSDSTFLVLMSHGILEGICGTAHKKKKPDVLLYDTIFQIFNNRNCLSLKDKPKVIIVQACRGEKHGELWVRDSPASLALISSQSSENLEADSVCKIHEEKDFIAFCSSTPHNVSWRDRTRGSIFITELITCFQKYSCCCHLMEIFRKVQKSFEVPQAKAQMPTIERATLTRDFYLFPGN

Caspase-2 (Homo sapiens) = biological target: T6, Caspase-2 (Homo sapiens) (UniProt P42575); test: Inhibition of human recombinant caspase2 upto 50 uM
T6 sequence (whole entry): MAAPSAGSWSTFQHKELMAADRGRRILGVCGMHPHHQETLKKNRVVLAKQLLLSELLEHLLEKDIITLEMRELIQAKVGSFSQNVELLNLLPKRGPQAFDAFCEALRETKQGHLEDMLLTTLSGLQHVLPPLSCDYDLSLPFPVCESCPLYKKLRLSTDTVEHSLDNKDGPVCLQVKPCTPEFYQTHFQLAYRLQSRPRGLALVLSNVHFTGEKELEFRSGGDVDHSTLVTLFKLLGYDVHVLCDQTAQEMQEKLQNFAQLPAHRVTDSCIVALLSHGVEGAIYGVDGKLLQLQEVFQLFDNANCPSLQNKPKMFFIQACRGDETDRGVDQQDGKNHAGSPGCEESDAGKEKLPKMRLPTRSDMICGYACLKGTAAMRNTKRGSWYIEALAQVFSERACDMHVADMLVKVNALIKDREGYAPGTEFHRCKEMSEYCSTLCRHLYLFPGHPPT

Caspase-1 (Homo sapiens) = biological target: T7, Caspase-1 (Homo sapiens) (UniProt P29466); test: Inhibition of human recombinant caspase1 upto 50 uM
T7 sequence (whole entry): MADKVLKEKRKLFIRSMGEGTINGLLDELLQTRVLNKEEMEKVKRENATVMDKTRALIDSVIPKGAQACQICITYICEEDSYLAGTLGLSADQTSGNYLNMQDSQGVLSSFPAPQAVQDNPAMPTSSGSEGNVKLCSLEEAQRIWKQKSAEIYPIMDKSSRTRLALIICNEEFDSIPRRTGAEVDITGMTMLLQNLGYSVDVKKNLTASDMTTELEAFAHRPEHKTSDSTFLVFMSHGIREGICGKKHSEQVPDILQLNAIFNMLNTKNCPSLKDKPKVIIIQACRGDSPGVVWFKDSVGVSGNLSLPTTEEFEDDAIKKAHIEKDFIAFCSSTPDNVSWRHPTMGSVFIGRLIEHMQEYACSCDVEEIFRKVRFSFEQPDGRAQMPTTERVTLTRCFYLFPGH

Measured: Activity

O=C(CN1C(=O)[C@@H](COC(=O)Nc2ccccc2)N=C(c2ccccc2)c2ccccc21)N[C@H]1CC(=O)OC1O (some centres not stated)
inactive: Caspase-4 (Homo sapiens) | Caspase-6 (Homo sapiens) | Caspase-3 (Homo sapiens) | Caspase-7 (Homo sapiens) | Caspase-5 (Homo sapiens) | Caspase-2 (Homo sapiens) | Caspase-1 (Homo sapiens)

O=C(CN1C(=O)[C@@H](COC(=O)Nc2c(F)cc(F)cc2Br)N=C(c2ccccc2)c2ccccc21)N[C@H]1CC(=O)OC1O (some centres not stated)
inactive: Caspase-4 (Homo sapiens) | Caspase-6 (Homo sapiens) | Caspase-3 (Homo sapiens) | Caspase-7 (Homo sapiens) | Caspase-5 (Homo sapiens) | Caspase-2 (Homo sapiens) | Caspase-1 (Homo sapiens)

Cc1cc(Cl)ccc1NC(=O)OC[C@H]1N=C(c2ccccc2)c2ccccc2N(CC(=O)N[C@H]2CC(=O)OC2O)C1=O (some centres not stated)
inactive: Caspase-4 (Homo sapiens) | Caspase-6 (Homo sapiens) | Caspase-3 (Homo sapiens) | Caspase-7 (Homo sapiens) | Caspase-5 (Homo sapiens) | Caspase-2 (Homo sapiens) | Caspase-1 (Homo sapiens)

O=C(CN1C(=O)[C@H](COC(=O)Nc2ccc(Cl)cc2C(F)(F)F)N=C(c2ccccc2)c2ccccc21)N[C@H]1CC(=O)OC1O (some centres not stated)
inactive: Caspase-4 (Homo sapiens) | Caspase-6 (Homo sapiens) | Caspase-3 (Homo sapiens) | Caspase-7 (Homo sapiens) | Caspase-5 (Homo sapiens) | Caspase-2 (Homo sapiens) | Caspase-1 (Homo sapiens)

O=C(CN1C(=O)[C@@H](COC(=O)Nc2ccc(F)cc2F)N=C(c2ccccc2)c2ccccc21)N[C@H]1CC(=O)OC1O (some centres not stated)
inactive: Caspase-4 (Homo sapiens) | Caspase-6 (Homo sapiens) | Caspase-3 (Homo sapiens) | Caspase-7 (Homo sapiens) | Caspase-5 (Homo sapiens) | Caspase-2 (Homo sapiens) | Caspase-1 (Homo sapiens)

O=C(CN1C(=O)[C@@H](COC(=O)Nc2cccc3ccccc23)N=C(c2ccccc2)c2ccccc21)N[C@H]1CC(=O)OC1O (some centres not stated)
inactive: Caspase-4 (Homo sapiens) | Caspase-6 (Homo sapiens) | Caspase-3 (Homo sapiens) | Caspase-7 (Homo sapiens) | Caspase-5 (Homo sapiens) | Caspase-2 (Homo sapiens) | Caspase-1 (Homo sapiens)

O=C(CN1C(=O)[C@@H](COC(=O)Nc2ccc(F)cc2)N=C(c2ccccc2)c2ccccc21)N[C@H]1CC(=O)OC1O (some centres not stated)
inactive: Caspase-4 (Homo sapiens) | Caspase-6 (Homo sapiens) | Caspase-3 (Homo sapiens) | Caspase-7 (Homo sapiens) | Caspase-5 (Homo sapiens) | Caspase-2 (Homo sapiens) | Caspase-1 (Homo sapiens)

CC(C)[C@H](NC(=O)OCc1ccccc1)C(=O)N[C@H](C=O)Cc1ccccc1 (Cbz-Val-Phe-aldehyde)
inactive: Caspase-4 (Homo sapiens) | Caspase-6 (Homo sapiens) | Caspase-3 (Homo sapiens) | Caspase-7 (Homo sapiens) | Caspase-5 (Homo sapiens) | Caspase-2 (Homo sapiens) | Caspase-1 (Homo sapiens)

O=C(CN1C(=O)[C@@H](COC(=O)Nc2ccc(Cl)cc2)N=C(c2ccccc2)c2ccccc21)N[C@H]1CC(=O)OC1O (some centres not stated)
inactive: Caspase-4 (Homo sapiens) | Caspase-6 (Homo sapiens) | Caspase-3 (Homo sapiens) | Caspase-7 (Homo sapiens) | Caspase-5 (Homo sapiens) | Caspase-2 (Homo sapiens) | Caspase-1 (Homo sapiens)

O=C(CN1C(=O)[C@@H](COC(=O)Nc2ccc(Cl)cc2C(F)(F)F)N=C(c2ccccc2)c2ccccc21)N[C@H]1CC(=O)OC1O (some centres not stated)
inactive: Caspase-4 (Homo sapiens) | Caspase-6 (Homo sapiens) | Caspase-3 (Homo sapiens) | Caspase-7 (Homo sapiens) | Caspase-5 (Homo sapiens) | Caspase-2 (Homo sapiens) | Caspase-1 (Homo sapiens)

COc1ccc(NC(=O)OC[C@H]2N=C(c3ccccc3)c3ccccc3N(CC(=O)N[C@H]3CC(=O)OC3O)C2=O)cc1 (some centres not stated)
inactive: Caspase-4 (Homo sapiens) | Caspase-6 (Homo sapiens) | Caspase-3 (Homo sapiens) | Caspase-7 (Homo sapiens) | Caspase-5 (Homo sapiens) | Caspase-2 (Homo sapiens) | Caspase-1 (Homo sapiens)
